Laboratory results from patent US10336701B2, “Pyridin-2-one derivatives of formula (II) useful as EP3 receptor antagonists” (Janssen Pharmaceutica NV, priority 2017, dated 2019).

Key:
Sprague Dawley rats = assay: IV infused EP3 antagonists on circulating insulin and glucose in the sulprostone infusion IVGTT model; format: in vivo, rat; settings: SD rats, IV bolus plus infusion at 7×Ki and 10×Ki (targeted)
Text: Biological Example 3—IV Infused EP3 Antagonists on Circulating Insulin and Glucose in the Sulprostone Infusion IVGTT Model
Jugular vein and carotid artery cannulated male Sprague Dawley rats (˜250 g, available from Charles River) were housed one rat per suspended cage in a temperature-controlled room with 12-hour light/dark cycle. The rats were allowed ad libitum access to water and maintained on a regular diet. Animals were acclimated for minimum 5 days prior to the start of the experiment. Experimental procedures were carried out in accordance with institutional standards for animal care and were approved by the institute's animal care and use committee.
A blood sample for insulin and blood chemistry was collected at 20 min (t=−20) prior to the start of dosing with sulprostone and/or test compound (EP3 antagonist). […]
Blood samples from all animals were collected into Heparin treated tubes. Background was measured via a glucometer at the 0 and 2 min time points to ensure that the animal received the glucose bolus. Plasma insulin was measured via a Meso Scale Discovery metabolic assay (available from Meso Scale). Plasma glucose, free fatty acid (FFA), triglycerides, cholesterol and ketones were measured on an OLYMPUS AU400E chemistry analyzer. Observations on animal health were recorded throughout the procedure. […]

EP3 receptor [1] = target: T1, EP3 receptor (Homo sapiens, UniProt P43115); assay: [3H]-PGE2 binding assay (EP3 competition binding); settings: read-out: [3H]-PGE2 Binding Ki
T1 construct: purchased Millipore HTS092M
T1 sequence (P43115 1-390): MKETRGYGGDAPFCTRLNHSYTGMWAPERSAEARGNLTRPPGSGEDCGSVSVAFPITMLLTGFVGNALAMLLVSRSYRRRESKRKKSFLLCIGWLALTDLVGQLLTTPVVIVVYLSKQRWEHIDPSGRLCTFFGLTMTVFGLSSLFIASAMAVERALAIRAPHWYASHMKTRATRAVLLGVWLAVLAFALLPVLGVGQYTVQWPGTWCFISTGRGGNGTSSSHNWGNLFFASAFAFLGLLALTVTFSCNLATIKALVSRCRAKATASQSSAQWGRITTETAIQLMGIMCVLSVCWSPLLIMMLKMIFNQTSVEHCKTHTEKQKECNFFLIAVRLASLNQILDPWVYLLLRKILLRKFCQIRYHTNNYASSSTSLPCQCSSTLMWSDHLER
How it was run: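 Scintillation-bead competition binding with EP3 membranes (2 μg/well), 2 nM [3H]-PGE2, 0.1% DMSO, in 50 mM Tris, 10 mM MgCl2, 1 mM EDTA, pH 7.4.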

EP3 receptor [2] = target: T1, EP3 receptor; assay: CHO cell cAMP assay (forskolin and sulprostone stimulated, HTRF); format: cell-based; settings: CHO cells; sulprostone 700 nM (EC80) and FSK 2 μM (EC70), 37° C. for 30 minutes; read-out: CHO_cAMP IC50

SMILES | reversal of suppression of glucose stimulate insulin secretion (GSIS) by sulprostone (Sprague Dawley rats) | Ki (EP3 receptor [1]) [nM] | IC50 (EP3 receptor [2]) [nM]
CC(C)C(/C=C1\OC(=O)NC1=O)c1ccc(-c2ccc3cccc(F)c3c2)[nH]c1=O (racemic) [Compound #62, (Z)-5-(2-(6-(8-fluoronaphthalen-2-yl)-2-oxo-1,2-dihydropyridin-3-yl)-3-methylbutylidene)oxazolidine-2,4-dione] | reverse suppression of glucose stimulate insulin secretion (GSIS) by sulprostone |  | 
CC(C)C(CC(N)=O)c1ccc(-c2ccc3ccccc3c2)[nH]c1=O (stereo not shown) [compound 249, 4-methyl-3-(6-(naphthalen-2-yl)-2-oxo-1,2-dihydropyridin-3-yl)pentanamide] |  | 5 | 53
CC(C)C(C(=O)NC1CN(C)C1)c1ccc(-c2ccc3cccc(F)c3c2)[nH]c1=O (stereo not shown) [compound 182, 2-(6-(8-fluoronaphthalen-2-yl)-2-oxo-1,2-dihydropyridin-3-yl)-3-methyl-N-(1-methylazetidin-3-yl)butanamide] |  | 41 | 638
O=c1[nH]c(-c2ccc3ccccc3c2)ccc1C1CCc2oncc2C1 (stereo not shown) [compound 187, 6-(naphthalen-2-yl)-3-(4,5,6,7-tetrahydrobenzo[d]isoxazol-5-yl)pyridin-2(1H)-one] |  | > 10000 | > 20000
CCn1ncc2c(F)cc(-c3ccc(C(c4noc(=O)[nH]4)C(C)C)c(=O)[nH]3)cc21 (stereo not shown) [Compound #277, 3-(1-(6-(1-ethyl-4-fluoro-1H-indazol-6-yl)-2-oxo-1,2-dihydropyridin-3-yl)-2-methylpropyl)-1,2,4-oxadiazol-5(4H)-one] |  | 107 | 548
CCN1CCOc2ccc(-c3ccc(C(c4noc(=O)[nH]4)C(C)C)c(=O)[nH]3)cc21 (stereo not shown) [Compound #278, 3-(1-(6-(4-ethyl-3,4-dihydro-2H-benzo[b][1,4]oxazin-6-yl)-2-oxo-1,2-dihydropyridin-3-yl)-2-methylpropyl)-1,2,4-oxadiazol-5(4H)-one] |  | 368 | 591
CC(C)C(/C=C1\OC(=O)NC1=O)c1ccc(-c2ccc3c(c2)N(C)CCO3)[nH]c1=O (stereo not shown) [compound 108, (Z)-5-(3-methyl-2-(6-(4-methyl-3,4-dihydro-2H-benzo[b][1,4]oxazin-6-yl)-2-oxo-1,2-dihydropyridin-3-yl)butylidene)oxazolidine-2,4-dione] |  | 171 | 602
CCC(CC)(CC1OC(=O)NC1=O)c1ccc(-c2ccc3cccc(F)c3c2)[nH]c1=O (stereo not shown) [compound 9, 5-(2-ethyl-2-(6-(8-fluoronaphthalen-2-yl)-2-oxo-1,2-dihydropyridin-3-yl)butyl)oxazolidine-2,4-dione] |  | 23 | 108
NC(=O)C1(c2ccc(-c3ccc4ccccc4c3)[nH]c2=O)CCCC1 [compound 219, 1-(6-(naphthalen-2-yl)-2-oxo-2,3-dihydropyridin-3-yl)cyclopentanecarboxamide] |  | 108 | 4070
CCN1CCOc2ccc(-c3ccc(C(C(C)C)N4CCSCC4)c(=O)[nH]3)cc21 (stereo not shown) [Compound #164, 6-(4-ethyl-3,4-dihydro-2H-benzo[b][1,4]oxazin-6-yl)-3-(2-methyl-1-thiomorpholinopropyl)pyridin-2(1H)-one] |  | 26 | 485
CC1(c2ccc(-c3ccc4ccccc4c3)[nH]c2=O)CN/C(=N\O)N1 (stereo not shown) [compound 288, 3-[(2E)-2-(hydroxyimino)-4-methylimidazolidin-4-yl]-6-(naphthalen-2-yl)-1,2-dihydropyridin-2-one] |  | 180 | 656
CC(C)C(CC1OC(=O)NC1=O)c1ccc(-c2cc(Cl)c3c(c2)ncn3C)[nH]c1=O (stereo not shown) [compound 107, 5-(2-(6-(7-chloro-1-methyl-1H-benzo[d]imidazol-5-yl)-2-oxo-1,2-dihydropyridin-3-yl)-3-methylbutyl)oxazolidine-2,4-dione] |  | > 10000 | > 20000
CCn1ncc2c(F)cc(-c3ccc(C(CC4OC(=O)NC4=O)C(C)C)c(=O)[nH]3)cc21 (stereo not shown) [compound 87, 5-(2-(6-(1-ethyl-4-fluoro-1H-indazol-6-yl)-2-oxo-1,2-dihydropyridin-3-yl)-3-methylbutyl)oxazoli-dine-2,4-dione] |  | 32 | 149
CC1(c2ccc(-c3ccc4ccccc4c3)[nH]c2=O)C(=O)Nc2nncn21 (stereo not shown) [compound 152, 3-[5-methyl-6-oxo-5H, 6H, 7H-imidazo[2,1-c][1,2,4]triazol-5-yl]-6-(naphthalen-2-yl)-1,2-dihydropyridin-2-one] |  | 428 | 2140
CCn1ncc2c(F)cc(-c3ccc(C4(O)CCCN(S(=O)(=O)C(C)C)C4)c(=O)[nH]3)cc21 (stereo not shown) [compound 295, 6-(1-ethyl-4-fluoro-1H-indazol-6-yl)-3-(3-hydroxy-1-(isopropylsulfonyl)piperidin-3-yl)pyridin-2(1H)-one] |  | 2 | 79
CONC1=NC(c2ccc(-c3ccc4cccc(F)c4c3)[nH]c2=O)(C(C)C)CN1 (stereo not shown) [compound 292, (Z)-6-(8-fluoronaphthalen-2-yl)-3-(4-isopropyl-2-(methoxyimino)imidazolidin-4-yl)pyridin-2(1H)-one] |  | 2 | 6
CC(C)C(Cc1cc(Cl)c(-c2ccc3cccc(F)c3c2)[nH]c1=O)c1noc(=O)[nH]1 (stereo not shown) [Compound #272, 3-(1-(5-chloro-6-(8-fluoronaphthalen-2-yl)-2-oxo-1,2-dihydropyridin-3-yl)-3-methylbutan-2-yl)-1,2,4-oxadiazol-5(4H)-one] |  | > 10000 | > 20000
CC(C)C(CC1OC(=O)NC1=O)c1ccc(-c2ccc3cccc(F)c3c2)[nH]c1=O (stereo not shown) [compound 77] |  | 16 | 60
CC(C)(CC1OC(=O)NC1=O)c1ccc(-c2ccc3cccc(F)c3c2)[nH]c1=O (stereo not shown) [compound 1, 5-(2-(6-(8-fluoronaphthalen-2-yl)-2-oxo-1,2-dihydropyridin-3-yl)-2-methylpropyl) oxazolidine-2,4-dione] |  | 39 | 88
CC(C)C(NS(=O)(=O)C1CCCCC1)c1ccc(-c2ccc3cccc(F)c3c2)[nH]c1=O (stereo not shown) [Compound #165, N-(1-(6-(8-fluoronaphthalen-2-yl)-2-oxo-1,2-dihydropyridin-3-yl)-2-methylpropyl)cyclohexanesulfonamide] |  | 31 | 250
CC(C)C(NC(N)=O)c1ccc(-c2ccc3cccc(F)c3c2)[nH]c1=O (stereo not shown) [compound 267, 1-(1-(6-(8-fluoronaphthalen-2-yl)-2-oxo-1,2-dihydropyridin-3-yl)-2-methylpropyl)urea] |  | 6 | 14
CC(C)/C(=C1/OC(=O)NC1=O)c1ccc(-c2ccc3cccc(F)c3c2)[nH]c1=O [Compound #303, (Z)-5-(1-(6-(8-fluoronaphthalen-2-yl)-2-oxo-1,2-dihydropyridin-3-yl)-2-methylpropylidene)oxazolidine-2,4-dione] |  | 14 | 1280
NC(=O)C(C1=CCCCC1)c1ccc(-c2ccc3ccccc3c2)[nH]c1=O (stereo not shown) [compound 226, 2-(cyclohex-1-en-1-yl)-2-(6-(naphthalen-2-yl)-2-oxo-1,2-dihydropyridin-3-yl)acetamide] |  | 186 | 4960
CC(C)C(NC(=O)NCCN(C)C)c1ccc(-c2ccc3cccc(F)c3c2)[nH]c1=O (stereo not shown) [compound 266, 1-(2-(dimethylamino)ethyl)-3-(1-(6-(8-fluoronaphthalen-2-yl)-2-oxo-1,2-dihydropyridin-3-yl)-2-methylpropyl)urea] |  | 28 | 736
CC(C)C(N/C(N)=N/C#N)c1ccc(-c2ccc3cccc(F)c3c2)[nH]c1=O (stereo not shown) [compound 268, (E)-2-cyano-1-(1-(6-(8-fluoronaphthalen-2-yl)-2-oxo-1,2-dihydropyridin-3-yl)-2-methylpropyl)quanidine] |  | 6 | 17
